Laboratory results: patent US20160185808A1, “PLATINUM DERIVATIVES FOR HYDROPHOBIC FORMULATIONS” (priority 2013, published 2016)

What was measured:
[1] = system: SKOV3 human ovary cancer cells; test: Therapeutic efficacy in vivo against SKOV3 tumors in Nu/Nu mice
Procedure: The therapeutic efficacy of the Pt (II) complex against cancer was examined in vivo according to the following procedure, the results of which can be seen both in Table III and in graphical form in FIG. 4. To develop orthotropic tumors, 30 Nu/Nu female mice, each weighing approximately 20 g (Charles River Laboratories, Cambridge, Mass.), were injected intraperitoneally (ip) with 1×10^6 SKOV3 human ovary cancer cells (American Type Culture Collection (ATCC), Manassas, Va.) suspended in phosphate buffered saline. Animals were then dosed with nothing (control group) or test compounds. […] Cisplatin was administered to mice as a comparative sample and its effectiveness was also examined. The doses of Pt-MMA (21 mg/kg) and cis-Platin (5 mg/kg) were calculated so that animals received equivalent amounts of Pt. Dosing began 39 days after tumor injection in cells when the tumors had reached a volume of 150 mm^3-200 mm^3 measured with a ruler.
Control or platinum compound treatment was administered on the 39th, 46th, 53th, 60th, and 66th day after initial tumor injections. The survival time of each group of mice was determined and the median survival time (days) was estimated on the basis of the observed survival time of each mouse. The therapeutic effectiveness of the Pt (II) complex is represented by the median survival significance compared to control (P-Value).

[2] = Storage stability of nanoemulsion formulations; format: physicochemical; settings: concentration up to 5 mg/ml, at both 4° C. and room temperature
Procedure: The poor […] of these compounds is due to the presence of a di-fatty acid structure, which causes them to be too hydrophobic. […] Nanoemulsion formulations prepared with a concentration of up to 5 mg/ml of cisplatin mono-myristate, cisplatin mono-palmitate, and cisplatin mono-stearate were stable at both 4° C. and room temperature for approximately 3 months.

[3] = cisplatin 5 mg/kg, Pt-MMA 21 mg/kg

N.N.[Cl][Pt][Cl] [Cisplatin, Cis-dichlorodiammine Pt (II)]
median survival compared to control group (in words) [1]: not significantly improved | Average Tumor Size at 21 Days ([1]; 21 days, cisplatin 5 mg/kg, Pt-MMA 21 mg/kg): 640 ± 314 mm^3 | Average Tumor Starting Size ([1]; at start of dosing (day 39 after tumor injection)): 171 ± 43 mm^3 | Median Survival [1, 3]: 28 days | Time for First Tumor to Reach 1000 mm^3 [1, 3]: 17 days | Median Survival Significance Compared to Control (P-Value) ([1]; compared to control group): 0.0606

CCCCCCCCCCCCCC(=O)[O][Pt]([NH2])([NH2])[Cl] [Cisplatin-mono myristate, cis-Diamine Pt (II) Chloride Monomyristic Acid]
Time nanoemulsion formulations were stable [2]: approximately 3 months

cis-Diamine Pt (II) Chloride Monopalmitic Acid [Cisplatin-mono palmitate]
Time nanoemulsion formulations were stable [2]: approximately 3 months

cis-Diamine Pt (II) Chloride Monostearic Acid [Cisplatin-mono stearate]
Time nanoemulsion formulations were stable [2]: approximately 3 months
